Reference: paper PMC12273560, “A versatile fluorescence polarization-based deubiquitination assay using an isopeptide bond substrate mimetic (IsoMim)” (The Journal of Biological Chemistry, 2025)

Columns and labels:
USP2 = target: T1, USP2 (Homo sapiens, UniProt O75604); assay: fluorescence polarization deubiquitination assay (IsoMim); assay type: biochemical
T1 construct: expressed in E. coli BL21(DE3)-RIL, nickel column purification
T1 sequence (O75604 250-605): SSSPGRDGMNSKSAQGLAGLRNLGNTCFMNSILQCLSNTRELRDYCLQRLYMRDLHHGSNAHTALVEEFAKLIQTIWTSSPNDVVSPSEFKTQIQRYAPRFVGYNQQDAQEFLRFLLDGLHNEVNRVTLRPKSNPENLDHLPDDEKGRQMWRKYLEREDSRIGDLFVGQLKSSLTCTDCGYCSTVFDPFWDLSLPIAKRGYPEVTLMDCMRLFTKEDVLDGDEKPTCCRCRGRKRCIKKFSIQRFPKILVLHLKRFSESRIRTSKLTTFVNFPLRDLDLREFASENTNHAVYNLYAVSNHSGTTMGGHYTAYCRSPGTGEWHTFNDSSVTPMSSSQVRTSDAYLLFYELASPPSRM

UCHL3 = target: T2, UCHL3 (Homo sapiens, UniProt P15374); assay: as above; assay type: biochemical
T2 construct: expressed in E. coli BL21(DE3)-RIL, nickel column purification
T2 sequence (P15374 1-230): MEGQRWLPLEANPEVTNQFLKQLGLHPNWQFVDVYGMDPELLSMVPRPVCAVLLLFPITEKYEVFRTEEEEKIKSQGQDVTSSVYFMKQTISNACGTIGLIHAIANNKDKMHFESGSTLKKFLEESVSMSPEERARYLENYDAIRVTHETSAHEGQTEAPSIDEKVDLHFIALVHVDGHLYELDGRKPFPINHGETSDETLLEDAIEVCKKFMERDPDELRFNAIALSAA

Compound: N#CSc1cc(SC#N)c(N)nc1N [PR-619]
- IC50 (USP2): 1070 nM
- IC50 (UCHL3): 4680 nM
